Measured values reported in patent US20150034084A1, “[…] NITRIC OXIDE FOR TREATING RESPIRATORY DISEASES” (Advanced Inhalation Therapies (AIT) Ltd., priority 2012, published 2015).

Tests used:
[1] = Phase I safety study: inspiratory NO2 level during gNO delivery; parameters: species or system human; settings: inspired gas at mouthpiece
Method: Subjects were administered gNO through a modified disposable mouthpiece to maximize mixing. Inspiration was spontaneously initiated by the subject from a conventional intermittent positive pressure breathing respirator (Mark-7, Carefusion, USA) in fixed flow mode delivering 48 liters per minute (LPM). Flows of gas were verified with a calibrated mass flow meter (TSI, USA). Gaseous nitric oxide (gNO, obtained at INOmax, Ikaria, USA) at a concentration of 800 ppm delivered at a flow of 12 LPM was titrated into a distal delivery port on the mouth piece connected to the respirator during inspiratory phase only (pressure switch). The Mark 7 respirator was supplied by an air/oxygen blender (Bird Sentry, Carefusion, USA) set to deliver 26% oxygen.
The levels of gNO, NO2, O2 and methemoglobin were monitored during the administration of gNO. The target gas mixture was 160 ppm gNO with a nitrogen dioxide (NO2) level of less than 5 ppm and an oxygen (O2) level ranging from 21% to 25%. Inspiratory NO, NO2 and O2 levels were continuously monitored by sampling from the mouthpiece sample port located about 6 millimeters from the mouth of the subject with an AeroNOx (Pulmonox, AB, Canada) NO, NO2 and O2 electrochemical analyzer. Delivery safety was determined by the number of occasions that NO2 exceeded 5 ppm, gNO exceeding 10% variation and O2 dropping below 20% during gNO administration. […]

[2] = test system: highly pathogenic Avian Influenza H7N3; settings: cited from earlier work
MRSA = settings: 200 ppm gNO, saline; cited from earlier work
P. aeruginosa = settings: cited from earlier work
Acinetobacter sp. = settings: 200 ppm gNO, saline; cited from earlier work
Mycobacterium = settings: 200 ppm gNO, saline; cited from earlier work
S. aureus (Clinical) = settings: 200 ppm gNO, saline; cited from earlier work
[3] = OSHA / Environmental Protection Agency; cited from earlier work
Klebsiella sp.#1 = settings: 200 ppm gNO, saline; cited from earlier work
[4] = Phase I safety study: pulmonary function tests; type: in vivo, human
Method: (§1) After obtaining informed consent, treatment was initiated within 5 days of enrollment. Subjects were housed in a hospital ward and received 160 ppm gNO for 30 minutes every four hours (Q4h), five times a day, for five consecutive days by inhalation. Subjects returned for follow-up evaluations 3, 7 and 21 days after the final gNO administration. Subject safety was determined by monitoring vital signs, methemoglobin levels, lung function, blood chemistry, hematology, prothrombin time, inflammatory cytokine/chemokines levels and endothelial activation. These parameters were compared to baseline and at various time-points during and after gNO administration.
Subjects underwent full pulmonary function tests (PFT), including lung diffusing capacity (DLCO) by a trained technician utilizing a calibrated pulmonary function system (Jaeger MasterScreen, VIASYS Healthcare, USA) on screening and days 2, 8, 12 and 26. Spirometry test (Microloop by Micro Medical, England) was performed on days 1, 3 and 4. Effect of gNO on lung function and DLCO was determined by changes from baseline, treatment days and follow up days.

Pseudomonas aeruginosa = settings: 160 ppm gNO, intermittent 30 minute exposures, rat; cited from earlier work
[5] = Phase I safety study: serum nitrite/nitrate by Griess reagent; type: in vivo, human; settings: during the trial, 160 ppm gNO
Method: as §1
These parameters were measured continuously during every gNO administration course and for 3.5 hours after the first treatment of the day. Daily serum samples were collected and frozen at −80° C. and the serum […] level was measured using the Griess reagent.

inflammatory cytokines = test: Phase I safety study: plasma cytokines by cytometric bead array; type: in vivo, human; settings: 160 ppm gNO inhalation
Method: as §1
(§2) Hematological assessment included a complete blood count and differentials (hemoglobin, hematocrit, red blood cell count, white blood cell count, white blood cell differential, and platelet count) were obtained in order to monitor blood chemistry, hematology and inflammation measurements. The blood chemistry profile included serum creatinine, and liver function tests such as aspartate aminotransferase (AST) serum glutamic oxaloacetic transaminase (SGOT), alkaline phosphatase, and gamma-glutamyl transferase (GGT). The effect of gNO on coagulation was determined by the prothrombin time (PT) and its derived measures of prothrombin ratio (PR) and international normalized ratio (INR). Heparinized plasma was collected at baseline and on days 1, 2, 4, and 5 of gNO administration, and on follow-up days 3, 7 and 21 and frozen at −80° C. Plasma cytokine levels were assessed using the human inflammation cytokine bead array kit (BD Bioscience, Canada). Plasma levels of angiopoietin Ang-1 and Ang-2 were determined by ELISA (R&D Systems, USA).
To assess whether gNO inhalation may cause inflammation or endothelial activation cytokines and the vascular endothelium activation factors Ang-1 and Ang-2 were quantified in peripheral plasma at baseline at various time points thereafter.

[6] = Phase I safety study: hematology, clinical chemistry, coagulation; type: in vivo, human
Method: as §1, §2

Serracia sp. = settings: 200 ppm gNO, saline; cited from earlier work
S. maltophilia = settings: 200 ppm gNO, saline; cited from earlier work

[N]=O [gNO, nitric oxide]
highest NO2 level recorded during the treatments ([1]; 160 ppm gNO): 2.8 ppm | mean NO2 level ([1]; 95% confidence level 2.17-2.47 ppm): 2.32 ppm | infectivity [2]: reducing the infectivity | LD100 (MRSA): 5 h | Latent Period (MRSA): 3 h | −2.5 Log10 (MRSA): 4.2 hours | survival (downward bactericidal trend towards) (P. aeruginosa; 50-160 ppm gNO, solid media, vs medical air): 5-10% | reduction of colony formation (P. aeruginosa; gNO greater than 120 ppm, agar plates): greater than 90% | time required to achieve the >90% reduction of colony formation (P. aeruginosa; gNO greater than 120 ppm): 8 to 12 h | LD100 (Acinetobacter sp.): 6 h | Latent Period (Acinetobacter sp.): 4 h | −2.5 Log10 (Acinetobacter sp.): 5 hours | LD100 (Mycobacterium): 10 h | Latent Period (Mycobacterium): 7 h | −2.5 Log10 (Mycobacterium): 9.2 hours | LD100 (S. aureus (Clinical)): 4 h | Latent Period (S. aureus (Clinical)): 3 h | −2.5 Log10 (S. aureus (Clinical)): 3.7 hours | inhalation threshold limit value (TLV) as a time-weighted average (TWA) [3]: 25 ppm | LD100 (Klebsiella sp.#1): 6 h | Latent Period (Klebsiella sp.#1): 3 h | −2.5 Log10 (Klebsiella sp.#1): 3.5 hours | lung parenchymal injury ([4]; 160 ppm NO, measured by lung function parameters): did not cause lung parenchymal injury | pulmonary function tests, abnormalities ([4]; during and after gNO administration, 160 ppm): did not reveal any abnormalities | DLCO versus baseline ([4]; during the course of the study): did not change from baseline | FEV1 versus baseline ([4]; during the course of the study): did not differ from baseline | forced vital capacity (FVC) versus baseline ([4]; during the course of the study): did not change from baseline | maximum mid-expiratory flow (MMEF) versus baseline ([4]; during the course of the study): did not differ from baseline | residual volume (RV) versus baseline ([4]; during the course of the study): did not change from baseline | total lung capacity (TLC) versus baseline ([4]; during the course of the study): did not change from baseline | pulmonary bioburden and leukocyte infiltration (Pseudomonas aeruginosa): effective to reduce the pulmonary bioburden and leukocyte infiltration | serum nitrite/nitrate levels versus baseline [5]: no significant differences | plasma IL-1b level versus baseline (inflammatory cytokines): unaffected | plasma IL-6 level versus baseline (inflammatory cytokines): unaffected | plasma IL-8 level versus baseline (inflammatory cytokines): unaffected | plasma IL-10 level versus baseline (inflammatory cytokines): unaffected | plasma IL-12p70 level versus baseline (inflammatory cytokines): unaffected | plasma TNF level versus baseline (inflammatory cytokines): unaffected | eosinophil cell numbers, end of study ([6]; baseline 0.15 giga/L, p=0.104): 0.19 giga/L | blood coagulation parameters, clinical chemistry and hematological parameters ([6]; baseline to completion of day 5): no statistically, nor clinically significant changes | neutrophil cell numbers, end of study ([6]; baseline value of zero, p=0.169): 0.01 giga/L | LD100 (Serracia sp.): 6 h | Latent Period (Serracia sp.): 4 h | −2.5 Log10 (Serracia sp.): 4.9 hours | LD100 (S. maltophilia): 4 h | Latent Period (S. maltophilia): 2 h | −2.5 Log10 (S. maltophilia): 2.8 hours
